Experimental data published in PubChem BioAssay AID248 (DTP/NCI, 2004).
Several values for one entry are separate records, joined by “and”; a condition that tells them apart may be missing. Equal entries are not always repeated. Toxic doses and inconclusive results are not listed. No stated cut-off is given here; in the data, active means T/C of 150% or more; inactive means T/C below 125%. Square brackets hold non-standard residues; d marks the D form. Peptide text beside a SMILES is read from it. * marks the point of attachment. Cbz = O=C(OCc1ccccc1)*; OBn = c1ccc(CO*)cc1; Sar = CNCC(=O)O

Tested on: L1210 leukemia ip in BDF1 mice, survival T/C
Assay: NCI In Vivo Anticancer Drug Screen. Data for tumor model L1210 Leukemia (intraperitoneal) in B6D2F1 (BDF1) mice
Details: endpoint: mean survival time, higher = longer survival
Method in brief: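 Antitumor effect is assessed in tumor-bearing animals. Survival in the compound arm is compared with a vehicle-dosed control arm and expressed as their quotient.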

[1] = dose: 50.0 mg/kg/injection, schedule: Q01DX009 (ip), vehicle: saline
[2] = dose: 100.0 mg/kg/injection, schedule: Q04DX003 (ip), vehicle: saline
[3] = dose: 100.0 mg/kg/injection, schedule: Q01DX009 (ip), vehicle: saline with Tween-80
[4] = dose: 200.0 mg/kg/injection, schedule: Q01DX009 (ip), vehicle: saline with Tween-80
[5] = dose: 400.0 mg/kg/injection, schedule: Q01DX009 (ip), vehicle: saline with Tween-80
[6] = dose: 100.0 mg/kg/injection, schedule: Q04DX003 (ip), vehicle: saline with Tween-80
[7] = dose: 200.0 mg/kg/injection, schedule: Q04DX003 (ip), vehicle: saline with Tween-80
[8] = dose: 400.0 mg/kg/injection, schedule: Q04DX003 (ip), vehicle: saline with Tween-80
[9] = dose: 100.0 mg/kg/injection, schedule: Q01DX009 (ip), vehicle: Klucel (hydroxypropylcellulose) (HPC)
[10] = dose: 100.0 mg/kg/injection, schedule: Q04DX003 (ip), vehicle: Klucel (hydroxypropylcellulose) (HPC)
[11] = dose: 200.0 mg/kg/injection, schedule: Q04DX003 (ip), vehicle: Klucel (hydroxypropylcellulose) (HPC)
[12] = dose: 400.0 mg/kg/injection, schedule: Q04DX003 (ip), vehicle: Klucel (hydroxypropylcellulose) (HPC)
[13] = dose: 100.0 mg/kg/injection, schedule: Q01DX009 (ip), vehicle: saline
[14] = dose: 200.0 mg/kg/injection, schedule: Q01DX009 (ip), vehicle: saline
[15] = dose: 200.0 mg/kg/injection, schedule: Q01DX009 (ip), vehicle: Klucel (hydroxypropylcellulose) (HPC)
[16] = dose: 400.0 mg/kg/injection, schedule: Q01DX009 (ip), vehicle: Klucel (hydroxypropylcellulose) (HPC)

Measured: T/C

N=C(N)SCc1ccc(CSC(=N)N)cc1
inactive: dose: 12.5 mg/kg/injection, schedule: Q04DX002 (ip), vehicle: saline with Tween-80 102 % of control | dose: 25.0 mg/kg/injection, schedule: Q01DX009 (ip), vehicle: saline 91 % of control | dose: 25.0 mg/kg/injection, schedule: Q04DX002 (ip), vehicle: saline with Tween-80 94 % of control | dose: 25.0 mg/kg/injection, schedule: Q04DX003 (ip), vehicle: saline 103 % of control | [1] 97 % of control | dose: 50.0 mg/kg/injection, schedule: Q04DX003 (ip), vehicle: saline 102 % of control | [2] 105 % of control

OCCC(c1ccc(Cl)cc1)N1CCCCC1 (stereo unspecified)
inactive: dose: 100.0 mg/kg/injection, schedule: Q01DX001 (ip), vehicle: other 104 % of control

NN(CC(=O)O)c1ccccc1
inactive: [3] 100 % of control | [4] 105 % of control | [5] 94 % of control

CCN(CC)C(=O)Nc1cccc(OC(=O)NC(C)(C)C)c1
inactive: [6] 99 % of control | [7] 103 % of control | [8] 93 % of control

C=CC(=O)NC1CCCCC1
inactive: dose: 25.0 mg/kg/injection, schedule: Q01DX009 (ip), vehicle: Klucel (hydroxypropylcellulose) (HPC) 97 % of control | dose: 50.0 mg/kg/injection, schedule: Q01DX009 (ip), vehicle: Klucel (hydroxypropylcellulose) (HPC) 95 % of control | [9] 102 % of control | [10] 100 % of control | [11] 98 % of control | [12] 100 % of control

CN(CC(=O)OCc1ccccc1)C(=O)CNC(=O)CNC(=O)OCc1ccccc1 (Cbz-Gly-Gly-[Sar]-OBn)
inactive: [6] 92 % of control | [7] 90 % of control | [8] 95 % of control

OCC1OC(n2ccc3c([Se])ncnc32)C(O)C1O (stereo unspecified)
inactive: dose: 12.5 mg/kg/injection, schedule: Q01DX005 (ip), vehicle: saline 119 % of control | dose: 25.0 mg/kg/injection, schedule: Q01DX005 (ip), vehicle: saline 122 % of control | dose: 50.0 mg/kg/injection, schedule: Q01DX005 (ip), vehicle: saline 115 % of control | dose: 100.0 mg/kg/injection, schedule: Q01DX005 (ip), vehicle: saline 122 % of control

SC1(S)CC(c2ccc(Cl)cc2)NC(c2ccc(Cl)cc2)C1 (stereo unspecified)
inactive: [1] 100 % of control | [13] 93 % of control and 102 % of control | [2] 98 % of control | [14] 93 % of control and 103 % of control | dose: 200.0 mg/kg/injection, schedule: Q04DX003 (ip), vehicle: saline 89 % of control

CCCCCC1CCC(O)CC1 (stereo unspecified)
inactive: [9] 95 % of control | [10] 106 % of control | [15] 90 % of control | [11] 111 % of control | [16] 105 % of control | [12] 103 % of control

CN(C)C12CCCCC1S(=O)(=O)C2 (stereo unspecified)
inactive: dose: 10.0 mg/kg/injection, schedule: Q01DX009 (ip), vehicle: saline 88 % of control | dose: 20.0 mg/kg/injection, schedule: Q01DX009 (ip), vehicle: saline 98 % of control

CC(=O)c1ccccc1C(=O)O
inactive: dose: 50.0 mg/kg/injection, schedule: Q04DX003 (ip), vehicle: Klucel (hydroxypropylcellulose) (HPC) 98 % of control | [10] 94 % of control | [11] 96 % of control

CCCCNC(=O)CC#N
inactive: [10] 104 % of control | [11] 107 % of control | [12] 107 % of control

Cc1cccc(C)c1NC(=O)c1ccc(Cl)cc1Cl
inactive: [9] 101 % of control | [10] 98 % of control | [15] 104 % of control | [11] 101 % of control | [16] 101 % of control | [12] 95 % of control

O=C(N/N=C/c1ccccc1[N+](=O)[O-])c1ccccc1
inactive: [9] 94 % of control | [15] 94 % of control | [16] 97 % of control

O=C(c1ccccc1)N(c1ccccc1)c1cccc(Cl)n1
inactive: dose: 50.0 mg/kg/injection, schedule: Q01DX009 (ip), vehicle: saline with Tween-80 93 % of control | [3] 93 % of control | [4] 90 % of control

CNC(=O)N(C)Cc1ccccc1
inactive: [13] 107 % of control | [6] 104 % of control | [14] 115 % of control | [7] 93 % of control | dose: 400.0 mg/kg/injection, schedule: Q01DX009 (ip), vehicle: saline 117 % of control | [8] 104 % of control

CSC(C#N)S(C)(=O)=O (stereo unspecified)
inactive: dose: 25.0 mg/kg/injection, schedule: Q01DX001 (ip), vehicle: Klucel (hydroxypropylcellulose) (HPC) 109 % of control | dose: 50.0 mg/kg/injection, schedule: Q01DX001 (ip), vehicle: Klucel (hydroxypropylcellulose) (HPC) 100 % of control | dose: 100.0 mg/kg/injection, schedule: Q01DX001 (ip), vehicle: Klucel (hydroxypropylcellulose) (HPC) 103 % of control and 108 % of control

CC(C)OP(=O)(NO)OC(C)C
inactive: dose: 100.0 mg/kg/injection, schedule: Q01DX001 (ip), vehicle: saline 97 % of control | dose: 200.0 mg/kg/injection, schedule: Q01DX001 (ip), vehicle: saline 92 % of control | dose: 400.0 mg/kg/injection, schedule: Q01DX001 (ip), vehicle: saline 90 % of control

COc1ccc(NC(=S)Nc2ccccc2S)cc1
inactive: [3] 90 % of control | dose: 100.0 mg/kg/injection, schedule: Q04DX002 (ip), vehicle: saline with Tween-80 97 % of control | [4] 97 % of control | dose: 200.0 mg/kg/injection, schedule: Q04DX002 (ip), vehicle: saline with Tween-80 97 % of control | dose: 400.0 mg/kg/injection, schedule: Q04DX002 (ip), vehicle: saline with Tween-80 97 % of control

COc1ccc(CCN)cc1F
inactive: dose: 100.0 mg/kg/injection, schedule: Q04DX002 (ip), vehicle: Klucel (hydroxypropylcellulose) (HPC) 98 % of control | dose: 200.0 mg/kg/injection, schedule: Q04DX002 (ip), vehicle: Klucel (hydroxypropylcellulose) (HPC) 102 % of control

CC1(C)C2CCC1(CS(=O)(=O)O)C(=O)C2.[Ag] (stereo unspecified)
inactive: dose: 3.12 mg/kg/injection, schedule: Q01DX009 (ip), vehicle: saline with Tween-80 92 % of control | dose: 6.25 mg/kg/injection, schedule: Q01DX009 (ip), vehicle: saline with Tween-80 87 % of control | dose: 12.5 mg/kg/injection, schedule: Q01DX009 (ip), vehicle: saline with Tween-80 90 % of control

Cc1cc(Cl)cc(C)c1OC(=O)Nc1cccc(C(F)(F)F)c1
inactive: [3] 112 % of control | [4] 106 % of control | [5] 101 % of control

CCCCOP(=O)(/C=C\c1ccccn1)OCCCC
inactive: dose: 50.0 mg/kg/injection, schedule: Q01DX009 (ip), vehicle: carboxymethylcellulose (CMC) 95 % of control and 97 % of control | dose: 50.0 mg/kg/injection, schedule: Q04DX003 (ip), vehicle: carboxymethylcellulose (CMC) 96 % of control | dose: 100.0 mg/kg/injection, schedule: Q01DX009 (ip), vehicle: carboxymethylcellulose (CMC) 94 % of control and 101 % of control | dose: 100.0 mg/kg/injection, schedule: Q04DX002 (ip), vehicle: carboxymethylcellulose (CMC) 100 % of control and 102 % of control | dose: 100.0 mg/kg/injection, schedule: Q04DX003 (ip), vehicle: carboxymethylcellulose (CMC) 108 % of control | dose: 200.0 mg/kg/injection, schedule: Q01DX009 (ip), vehicle: carboxymethylcellulose (CMC) 102 % of control and 117 % of control | dose: 200.0 mg/kg/injection, schedule: Q04DX002 (ip), vehicle: carboxymethylcellulose (CMC) 106 % of control and 91 % of control | dose: 200.0 mg/kg/injection, schedule: Q04DX003 (ip), vehicle: carboxymethylcellulose (CMC) 102 % of control
